Data reported in patent publication US20240024520A1, “AUTONOMOUS KNOB DOMAIN PEPTIDES” (UCB BIOPHARMA SRL, priority 2020, published 2024).
Where two headings read alike, the source gives them in different places. Bridge positions count the residues as written; N and C are the ends. Peptide text beside a SMILES is read from it.

Target: C5 (Homo sapiens, UniProt P01031)
Experiment: Biacore multi-cycle kinetics on human C5
Format: binding
Conditions: for mean stoichiometric ratio: measured Rmax divided by theoretical Rmax; for koff: read-out: mean Koff; for kon: read-out: mean Kon
Method: Binding of knob domain peptides to human C5 was measured by SPR, using a multi-cycle kinetics method as follows:
Kinetics were measured using a Biacore 8K (GE Healthcare) with a CM5 chip, which was prepared as follows: EDC/NHS was mixed at 1:1 ratio (flow rate, 10 μL/min; contact time, 30 seconds), human C5 protein at 1 μg/mL in pH 4.5 sodium-acetate buffer, were injected over flow cell one only (flow rate, 10 μL/min; contact time, 60 seconds). Final immobilization levels in the range of 2000-3000 response units (RU) were obtained, to yield theoretical Rmax values of ˜50-60 RU. Serial dilutions of peptide were prepared in HBS-EP buffer and injected (flow rate, 30 μL/min; contact time, 240 seconds; dissociation time, 6000 seconds). After each injection, the surface was regenerated with two sequential injections of 2M MgCl2 (flow rate, […]; contact time, 30 seconds). Binding to the reference surface was subtracted, and the data were fitted to a single site binding model, using Biacore evaluation software.

[1] = multi-cycle kinetics, n = 3 experiments

C5, sequence (P01031 19-1676): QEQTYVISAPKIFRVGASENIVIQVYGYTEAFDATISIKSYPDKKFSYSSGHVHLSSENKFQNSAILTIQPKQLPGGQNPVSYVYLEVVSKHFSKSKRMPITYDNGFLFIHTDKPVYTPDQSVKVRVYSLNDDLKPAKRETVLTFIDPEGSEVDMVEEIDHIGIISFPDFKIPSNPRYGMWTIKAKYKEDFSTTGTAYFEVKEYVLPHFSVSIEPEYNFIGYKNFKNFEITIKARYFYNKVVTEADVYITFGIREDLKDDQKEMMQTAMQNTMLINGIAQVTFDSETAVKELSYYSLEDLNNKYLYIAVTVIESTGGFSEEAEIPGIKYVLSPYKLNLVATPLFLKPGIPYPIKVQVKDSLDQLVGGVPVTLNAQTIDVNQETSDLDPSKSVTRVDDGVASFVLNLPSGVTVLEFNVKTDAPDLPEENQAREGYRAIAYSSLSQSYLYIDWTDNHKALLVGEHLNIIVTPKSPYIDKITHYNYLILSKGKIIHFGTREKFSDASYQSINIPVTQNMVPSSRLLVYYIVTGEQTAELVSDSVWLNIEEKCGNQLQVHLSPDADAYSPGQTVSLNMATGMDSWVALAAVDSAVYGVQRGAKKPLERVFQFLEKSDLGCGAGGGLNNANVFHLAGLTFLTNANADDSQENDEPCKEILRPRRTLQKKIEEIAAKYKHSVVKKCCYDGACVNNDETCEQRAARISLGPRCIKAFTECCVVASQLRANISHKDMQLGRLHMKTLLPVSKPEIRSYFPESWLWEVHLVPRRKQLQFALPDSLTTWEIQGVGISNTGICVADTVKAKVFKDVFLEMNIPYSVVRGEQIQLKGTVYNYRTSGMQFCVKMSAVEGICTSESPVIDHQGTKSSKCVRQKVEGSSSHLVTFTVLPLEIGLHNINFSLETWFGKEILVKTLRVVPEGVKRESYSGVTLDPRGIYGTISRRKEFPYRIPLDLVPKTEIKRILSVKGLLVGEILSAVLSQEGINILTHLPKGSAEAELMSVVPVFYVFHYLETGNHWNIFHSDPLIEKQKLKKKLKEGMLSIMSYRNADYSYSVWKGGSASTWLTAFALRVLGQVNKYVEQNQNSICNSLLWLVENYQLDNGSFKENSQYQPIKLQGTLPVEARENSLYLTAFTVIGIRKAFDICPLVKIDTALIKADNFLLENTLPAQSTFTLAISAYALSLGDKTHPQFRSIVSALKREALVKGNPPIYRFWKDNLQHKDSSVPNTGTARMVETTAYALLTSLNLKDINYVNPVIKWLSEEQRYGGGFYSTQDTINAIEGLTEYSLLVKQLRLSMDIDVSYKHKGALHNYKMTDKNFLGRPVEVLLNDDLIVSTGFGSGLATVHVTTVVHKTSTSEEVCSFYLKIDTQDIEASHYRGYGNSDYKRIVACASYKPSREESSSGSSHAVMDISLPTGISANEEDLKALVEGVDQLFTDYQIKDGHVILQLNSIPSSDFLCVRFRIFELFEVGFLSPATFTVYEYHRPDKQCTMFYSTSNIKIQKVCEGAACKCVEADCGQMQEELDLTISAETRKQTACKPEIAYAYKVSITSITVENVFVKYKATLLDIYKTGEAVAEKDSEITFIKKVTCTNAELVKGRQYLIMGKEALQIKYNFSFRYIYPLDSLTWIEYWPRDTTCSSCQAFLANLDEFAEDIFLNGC

Row | binding to human C5 (chemical knob domains and variants, result in words) | Compound | mean stoichiometric ratio (n = 3 experiments) | koff [1] [s⁻¹] | kon [1] [M⁻¹ s⁻¹] | koff [s⁻¹] | kon [M⁻¹ s⁻¹]
1 |  | CC[C@H](C)[C@@H]1NC(=O)[C@H](C)NC(=O)[C@H](C(C)C)NC(=O)CNC(=O)[C@@H]2CSSC[C@@H](C(=O)NCC(=O)N[C@@H](Cc3c[nH]cn3)C(=O)N[C@@H](Cc3ccccc3)C(=O)N[C@@H](CC(C)C)C(=O)N[C@@H](CC(N)=O)C(=O)N[C@@H](CO)C(=O)NCC(=O)N3CCC[C@H]3C(=O)N[C@@H](CC(N)=O)C(=O)N[C@H](C(=O)N[C@@H](CO)C(=O)N3CCC[C@H]3C(=O)N[C@@H](Cc3ccc(O)cc3)C(=O)N[C@H](C(=O)N[C@@H](CO)C(=O)N[C@H](C(=O)O)[C@@H](C)O)C(C)C)[C@@H](C)CC)NC(=O)CNC(=O)[C@H](C)NC(=O)[C@H](CCCNC(=N)N)NC(=O)CNC(=O)[C@H](CSSC[C@H](NC(=O)[C@@H](N)[C@@H](C)O)C(=O)N3CCC[C@H]3C(=O)N[C@@H](CCC(=O)O)C(=O)NCC(=O)N[C@@H](Cc3c[nH]c4ccccc34)C(=O)N[C@@H](CO)C(=O)N[C@@H](CCC(=O)O)C(=O)N2)NC(=O)[C@H](CCC(=O)O)NC(=O)[C@H](Cc2ccc(O)cc2)NC(=O)CNC(=O)[C@H](Cc2ccc(O)cc2)NC1=O [K92chemFE W21A] (H-TCPEGWSECGVAIYGYECGRAGCGHFLNSGPNISPYVST-OH; disulfide 2-18, 9-23; N-terminus assumed) | 0.62 | 0.00848 | 17400 |  | 
2 |  | CC[C@H](C)[C@@H]1NC(=O)[C@H](C)NC(=O)[C@H](C(C)C)NC(=O)CNC(=O)[C@@H]2CSSC[C@@H](C(=O)NCC(=O)N[C@@H](Cc3c[nH]cn3)C(=O)N[C@@H](Cc3ccccc3)C(=O)N[C@@H](CC(C)C)C(=O)N[C@@H](CC(N)=O)C(=O)N[C@@H](CO)C(=O)NCC(=O)N3CCC[C@H]3C(=O)N[C@@H](CC(N)=O)C(=O)N[C@H](C(=O)N[C@@H](CO)C(=O)N3CCC[C@H]3C(=O)N[C@@H](Cc3ccc(O)cc3)C(=O)N[C@H](C(=O)N[C@@H](CO)C(=O)N[C@H](C(=O)O)[C@@H](C)O)C(C)C)[C@@H](C)CC)NC(=O)CNC(=O)[C@H](Cc3c[nH]c4ccccc34)NC(=O)[C@H](CCCNC(=N)N)NC(=O)CNC(=O)[C@H](CSSC[C@H](NC(=O)[C@@H](N)[C@@H](C)O)C(=O)N3CCC[C@H]3C(=O)N[C@@H](CCC(=O)O)C(=O)NCC(=O)N[C@@H](Cc3c[nH]c4ccccc34)C(=O)N[C@@H](CO)C(=O)N[C@@H](CCC(=O)O)C(=O)N2)NC(=O)[C@H](CCC(=O)O)NC(=O)[C@H](Cc2ccc(O)cc2)NC(=O)CNC(=O)[C@H](C)NC1=O [K92chemFE Y14A] (H-TCPEGWSECGVAIAGYECGRWGCGHFLNSGPNISPYVST-OH; disulfide 2-18, 9-23; N-terminus assumed) | 0.41 | 0.0001 | 27200 |  | 
3 |  | CC[C@H](C)[C@@H]1NC(=O)[C@H](C)NC(=O)[C@H](C(C)C)NC(=O)CNC(=O)[C@@H]2CSSC[C@@H](C(=O)NCC(=O)N[C@@H](Cc3c[nH]cn3)C(=O)N[C@@H](Cc3ccccc3)C(=O)N[C@@H](CC(C)C)C(=O)N[C@@H](CC(N)=O)C(=O)N[C@@H](CO)C(=O)NCC(=O)N3CCC[C@H]3C(=O)N[C@@H](CC(N)=O)C(=O)N[C@H](C(=O)N[C@@H](CO)C(=O)N3CCC[C@H]3C(=O)N[C@@H](Cc3ccc(O)cc3)C(=O)N[C@H](C(=O)N[C@@H](CO)C(=O)N[C@H](C(=O)O)[C@@H](C)O)C(C)C)[C@@H](C)CC)NC(=O)CNC(=O)[C@H](Cc3c[nH]cn3)NC(=O)[C@H](CCCNC(=N)N)NC(=O)CNC(=O)[C@H](CSSC[C@H](NC(=O)[C@@H](N)[C@@H](C)O)C(=O)N3CCC[C@H]3C(=O)N[C@@H](CCC(=O)O)C(=O)NCC(=O)N[C@@H](Cc3c[nH]c4ccccc34)C(=O)N[C@@H](CO)C(=O)N[C@@H](CCC(=O)O)C(=O)N2)NC(=O)[C@H](CCC(=O)O)NC(=O)[C@H](Cc2ccc(O)cc2)NC(=O)CNC(=O)[C@H](Cc2ccc(O)cc2)NC1=O [K92chemFE W21H] (H-TCPEGWSECGVAIYGYECGRHGCGHFLNSGPNISPYVST-OH; disulfide 2-18, 9-23; N-terminus assumed) | 0.69 |  |  | 0.000612 | 425000
4 |  | CC[C@H](C)[C@@H]1NC(=O)[C@H](C)NC(=O)[C@H](C(C)C)NC(=O)CNC(=O)[C@@H]2CSSC[C@@H](C(=O)NCC(=O)N[C@@H](Cc3c[nH]cn3)C(=O)N[C@@H](Cc3ccccc3)C(=O)N[C@@H](CC(C)C)C(=O)N[C@@H](CC(N)=O)C(=O)N[C@@H](CO)C(=O)NCC(=O)N3CCC[C@H]3C(=O)N[C@@H](CC(N)=O)C(=O)N[C@H](C(=O)N[C@@H](CO)C(=O)N3CCC[C@H]3C(=O)N[C@@H](Cc3ccc(O)cc3)C(=O)N[C@H](C(=O)N[C@@H](CO)C(=O)N[C@H](C(=O)O)[C@@H](C)O)C(C)C)[C@@H](C)CC)NC(=O)CNC(=O)[C@H](Cc3c[nH]c4ccccc34)NC(=O)[C@H](CCCNC(=N)N)NC(=O)CNC(=O)[C@H](CSSC[C@H](NC(=O)[C@@H](N)[C@@H](C)O)C(=O)N3CCC[C@H]3C(=O)N[C@@H](CCC(=O)O)C(=O)NCC(=O)N[C@@H](Cc3c[nH]c4ccccc34)C(=O)N[C@@H](CO)C(=O)N[C@@H](CCC(=O)O)C(=O)N2)NC(=O)[C@H](CCC(=O)O)NC(=O)[C@H](C)NC(=O)CNC(=O)[C@H](Cc2ccc(O)cc2)NC1=O [K92chemFE Y16A] (H-TCPEGWSECGVAIYGAECGRWGCGHFLNSGPNISPYVST-OH; disulfide 2-18, 9-23; N-terminus assumed) | 0.66 | 0.786 | 1.56e+07 |  | 
5 |  | CC[C@H](C)[C@@H]1NC(=O)[C@H](C)NC(=O)[C@H](C(C)C)NC(=O)CNC(=O)[C@@H]2CSSC[C@@H](C(=O)NCC(=O)N[C@@H](Cc3c[nH]cn3)C(=O)N[C@@H](C)C(=O)N[C@@H](CC(C)C)C(=O)N[C@@H](CC(N)=O)C(=O)N[C@@H](CO)C(=O)NCC(=O)N3CCC[C@H]3C(=O)N[C@@H](CC(N)=O)C(=O)N[C@H](C(=O)N[C@@H](CO)C(=O)N3CCC[C@H]3C(=O)N[C@@H](Cc3ccc(O)cc3)C(=O)N[C@H](C(=O)N[C@@H](CO)C(=O)N[C@H](C(=O)O)[C@@H](C)O)C(C)C)[C@@H](C)CC)NC(=O)CNC(=O)[C@H](Cc3c[nH]c4ccccc34)NC(=O)[C@H](CCCNC(=N)N)NC(=O)CNC(=O)[C@H](CSSC[C@H](NC(=O)[C@@H](N)[C@@H](C)O)C(=O)N3CCC[C@H]3C(=O)N[C@@H](CCC(=O)O)C(=O)NCC(=O)N[C@@H](Cc3c[nH]c4ccccc34)C(=O)N[C@@H](CO)C(=O)N[C@@H](CCC(=O)O)C(=O)N2)NC(=O)[C@H](CCC(=O)O)NC(=O)[C@H](Cc2ccc(O)cc2)NC(=O)CNC(=O)[C@H](Cc2ccc(O)cc2)NC1=O [K92chemFE F26A] (H-TCPEGWSECGVAIYGYECGRWGCGHALNSGPNISPYVST-OH; disulfide 2-18, 9-23; N-terminus assumed) | 0.65 |  |  | 0.00328 | 184000
6 | much-lower loss of affinity | K92 chemFE W21H: W21H mutant of K92chemFE (TCPEGWSECGVAIYGYECGRHGCGHFLNSGPNISPYVST) |  |  |  |  | 
7 |  | CC[C@H](C)[C@@H]1NC(=O)[C@H](C)NC(=O)[C@H](C(C)C)NC(=O)CNC(=O)[C@@H]2CSSC[C@@H](C(=O)NCC(=O)N[C@@H](Cc3c[nH]cn3)C(=O)N[C@@H](Cc3ccccc3)C(=O)N[C@@H](CC(C)C)C(=O)N[C@@H](CC(N)=O)C(=O)N[C@@H](CO)C(=O)NCC(=O)N3CCC[C@H]3C(=O)N[C@@H](CC(N)=O)C(=O)N[C@H](C(=O)N[C@@H](CO)C(=O)N3CCC[C@H]3C(=O)N[C@@H](Cc3ccc(O)cc3)C(=O)N[C@H](C(=O)N[C@@H](CO)C(=O)N[C@H](C(=O)O)[C@@H](C)O)C(C)C)[C@@H](C)CC)NC(=O)CNC(=O)[C@H](Cc3c[nH]c4ccccc34)NC(=O)[C@H](CCCNC(=N)N)NC(=O)CNC(=O)[C@H](CSSC[C@H](NC(=O)[C@@H](N)[C@@H](C)O)C(=O)N3CCC[C@H]3C(=O)N[C@@H](CCC(=O)O)C(=O)NCC(=O)N[C@@H](C)C(=O)N[C@@H](CO)C(=O)N[C@@H](CCC(=O)O)C(=O)N2)NC(=O)[C@H](CCC(=O)O)NC(=O)[C@H](Cc2ccc(O)cc2)NC(=O)CNC(=O)[C@H](Cc2ccc(O)cc2)NC1=O [K92chemFE W6A] (H-TCPEGASECGVAIYGYECGRWGCGHFLNSGPNISPYVST-OH; disulfide 2-18, 9-23; N-terminus assumed) | 0.60 | 0.00157 | 7980 |  | 
